Experimental data taken from US9982026B2, “Compositions and methods for assessing and treating adrenal diseases and disorders” (YALE UNIVERSITY, priority 2011, dated 2018).
Changes are numbered by the printed parent chain. “Also recorded” adds a separate entry of the source.

How the values were obtained:
[1] = target: T1, KCNJ5 WT homotetramers in 293T cells (Homo sapiens, UniProt P48544); assay: Whole-cell patch clamp of KCNJ5 homotetramers, Ba2+ block; assay type: cell-based; settings: 1 mM BaCl2 in extracellular fluid, symmetric high K+ solutions
T1 construct: host or cells: 293T
T1 sequence (P48544 1-419): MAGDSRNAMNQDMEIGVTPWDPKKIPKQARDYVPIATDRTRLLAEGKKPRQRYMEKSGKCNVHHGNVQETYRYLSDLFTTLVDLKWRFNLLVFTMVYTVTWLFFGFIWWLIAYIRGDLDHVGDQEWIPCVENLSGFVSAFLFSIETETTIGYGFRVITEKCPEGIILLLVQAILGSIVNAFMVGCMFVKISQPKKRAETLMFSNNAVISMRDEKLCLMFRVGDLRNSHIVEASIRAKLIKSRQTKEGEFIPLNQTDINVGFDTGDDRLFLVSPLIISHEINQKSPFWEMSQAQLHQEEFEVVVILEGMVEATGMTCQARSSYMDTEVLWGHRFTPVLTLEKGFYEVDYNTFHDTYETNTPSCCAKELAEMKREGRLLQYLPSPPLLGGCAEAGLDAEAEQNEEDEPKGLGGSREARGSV
Method: Because of low current amplitude of homotetrameric channels, currents were measured under symmetrical high Na+ or high K+ conditions, which increases current amplitude (Owen et al., 1999, Exp Physiol 84:471-488; Andreoli, et al., Eds., Molecular Biology of Membrane Transport Disorders (Plenum Press, New York, ed. 2, 1996), chap. 5) (FIGS. 13A-13D); reversal potentials and permeability ratios were determined using physiological solutions (FIGS. 13E, 13F). (FIG. 13A) Representative whole-cell recordings showing K+ and Na+ currents in 293T cells transfected with KCNJ5, KCNJ5G151R, KCNJ5L168R, and KCNJ5T158A. […] (FIGS. 13B, 13C) Current-voltage relationships from cells expressing the indicated constructs with symmetric high K+ or high Na+ solutions as in FIG. 13A. […] Relative permeabilities of K+:Na+ were determined in physiologic solutions as described in FIG. 13E. (FIG. 13E) Reversal potential of 293T cells transfected with WT or mutant KCNJ5 using physiological solutions. […] The reversal potential for the homotetramers was determined by a ramp protocol ranging from −100 to +100 mV after forming a high resistance seal. […]
To analyze homomeric wild-type or mutant KCNJ5 currents, 1 μg of cDNA was transfected. […] For each construct, currents were measured in two conditions. […] The reversal potential was determined using a ramp protocol ranging from −100 to +100 mV after forming a high resistance seal. […]

[2] = target: T2, KCNJ3/KCNJ5WT in 293T cells (Homo sapiens, UniProt P48544+P48549); assay: Whole-cell patch clamp of KCNJ3/KCNJ5 heterotetramers, Ba2+ block; assay type: cell-based; settings: 1 mM BaCl2 in extracellular solution; listed as Ba2+
T2 construct: #SC118769 (KCNJ3); host or cells: 293T
T2 sequence (P48544 1-419): T1 sequence (P48544 1-419)
T2 sequence (P48549 1-501): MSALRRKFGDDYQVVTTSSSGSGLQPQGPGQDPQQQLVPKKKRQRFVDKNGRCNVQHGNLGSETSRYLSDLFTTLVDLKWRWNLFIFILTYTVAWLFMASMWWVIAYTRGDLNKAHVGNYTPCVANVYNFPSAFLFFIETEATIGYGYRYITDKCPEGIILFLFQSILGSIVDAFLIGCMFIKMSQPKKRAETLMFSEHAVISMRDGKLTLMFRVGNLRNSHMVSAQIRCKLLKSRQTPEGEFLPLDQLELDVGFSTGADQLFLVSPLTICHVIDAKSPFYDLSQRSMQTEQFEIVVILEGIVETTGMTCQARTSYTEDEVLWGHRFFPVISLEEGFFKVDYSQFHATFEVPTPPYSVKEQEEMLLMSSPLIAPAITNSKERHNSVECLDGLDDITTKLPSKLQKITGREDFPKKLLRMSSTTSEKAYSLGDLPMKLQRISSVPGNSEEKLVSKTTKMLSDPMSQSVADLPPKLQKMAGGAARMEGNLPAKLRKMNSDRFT
Method: (§1) FIG. 3A depicts the results of representative whole-cell recordings of 293T cells transfected with empty vector or KCNJ3 plus WT or mutant KCNJ5. […] Middle row: 1 mM BaCl2 was added. Bottom row: 140 mM choline chloride was substituted for extracellular NaCl. FIG. 3B depicts the current-voltage relationships from cells expressing indicated constructs (n=3 to 7 for each construct). Reversal potentials in control conditions are indicated. […] FIG. 3C depicts that the K+:Na+ permeability ratios calculated from the reversal potentials show loss of ion selectivity of the mutant channels. Data in FIGS. 3B and 3C are shown as mean±SEM.
(§2) Empty vector was used as a control. Cells were examined one day after transient transfection.
(§3) 1 mM BaCl2 was used to block Kir channels. […] All data are shown as mean±SEM.

[3] = target: T3, KCNJ3/KCNJ5G151R in 293T cells (Homo sapiens, UniProt P48544+P48549, G151R); assay: as above; assay type: cell-based; settings: 1 mM BaCl2 in extracellular solution
T3 construct: #SC118769 (KCNJ3); host or cells: 293T
T3 sequence (P48544 1-419 G151R): T1 sequence (P48544 1-419) with G151R
T3 sequence (P48549 1-501): T2 sequence (P48549 1-501)
Method: as §1, §2, §3

[4] = tested on: KCNJ3 plus mutant KCNJ5 in 293T cells; assay: as above; assay type: cell-based, human; settings: 1 mM BaCl2 in extracellular solution; mutant channels G151R, L168R, T158A
Method: as §1, §2, §3

[5] = target: KCNJ3/KCNJ5WT cotransfected with the dopamine D2 receptor in 293T cells (Homo sapiens, UniProt P14416); settings: 1 μM dopamine, current amplitudes at −100 mV, before vs after addition, n=4
KCNJ3/KCNJ5WT cotransfected with the dopamine D2 receptor in 293T cells, sequence (P14416 whole entry): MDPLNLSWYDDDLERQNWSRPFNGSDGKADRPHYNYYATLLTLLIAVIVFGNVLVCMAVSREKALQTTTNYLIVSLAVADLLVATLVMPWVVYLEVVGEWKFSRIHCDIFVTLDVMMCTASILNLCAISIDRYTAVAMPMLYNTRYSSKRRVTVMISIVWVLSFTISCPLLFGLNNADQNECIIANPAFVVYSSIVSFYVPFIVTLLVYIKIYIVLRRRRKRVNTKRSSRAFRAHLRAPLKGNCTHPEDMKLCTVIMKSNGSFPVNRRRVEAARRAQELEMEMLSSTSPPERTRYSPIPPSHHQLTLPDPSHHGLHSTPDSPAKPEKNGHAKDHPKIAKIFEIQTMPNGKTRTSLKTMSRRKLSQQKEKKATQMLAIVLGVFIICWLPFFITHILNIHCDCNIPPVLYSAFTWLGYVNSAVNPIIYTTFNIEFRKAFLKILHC
Method: Representative whole-cell recordings of 293T cells cotransfected with KCNJ3/KCNJ5WT and the dopamine D2 receptor are shown. The pipette holding potential was 0 mV before clamping, and the cell was clamped from −100 to 60 mV with 20 mV increments before (left) and after (right) addition of 1 μM dopamine. The extracellular solution contained 140 mM NaCl, 5 mM KCl, 1.8 mM MgCl2, 1.8 mM CaCl2, and 10 mM HEPES, pH 7.4, while the intracellular solution contained 140 mM KCl, 4 mM MgCl2, 1 mM CaCl2, 1 mM EGTA, and 5 mM HEPES, pH 7.4. […] (FIG. 12B) Mean±SEM of current amplitudes measured at −100 mV before (control) and after addition of dopamine as in FIG. 12A (n=4).
293T cells were transfected with plasmid DNA using TransIT®-293 Transfection Reagent (Mirus) according to the manufacturer's instructions. Empty vector was used as a control. Cells were examined one day after transient transfection. Standard perforated whole-cell patch clamp recordings were performed on GFP-positive cells using an Axopatch 200A (Axon Instruments) amplifier. […]
Cells were cotransfected with 0.8 μg wild-type or mutant KCNJ5 and 0.5 μg KCNJ3 cDNA. […] Endogenous currents of 293T cells transfected with empty vector were measured from −100 to 60 mV. […] Data were analyzed by a combination of Axon Clampfit9.2 (Molecular Devices) and SigmaPlot (Jandel Scientific) programs. Data from 3-7 cells were analyzed for each construct. […]

Compound	inhibition of channel activity [1]	inhibition of current by Ba2+ [2]	inhibition of current by Ba2+ [3]	inhibition of current by Ba2+ [4]	increase of current [5]
[Ba+2].[Cl-].[Cl-] [BaCl2]	inhibited WT channel activity	inhibited; also recorded: inhibits the WT channel	loss of inhibition	variable inhibition	
Cl.NCCc1ccc(O)c(O)c1 [Dopamine, dopamine hydrochloride]					~50%
